Measured values: patent US5883243A, “Non-reducing saccharides, their preparations and uses” (Kabushiki Kaisha Hayashibara Seibutsu Kagaku Kenkyujo, priority 1997, dated 1999)

How the values were obtained:
[1] = tested on: Streptococcus sobrinus ATCC 27351; assay: Acid formation by dental caries-inducing microorganisms; conditions: living wet cells, 0.02M saccharide, Stephen buffer pH 7.0, 37° C.; for pH at each fermentation time (min): 0: 0 min; for pH at each fermentation time (min): 5: 5 min; for pH at each fermentation time (min): 15: 15 min; for pH at each fermentation time (min): 30: 30 min; for pH at each fermentation time (min): 60: 60 min; for pH at each fermentation time (min): 90: 90 min
[2] = tested on: Bifidobacterium adolescentis JCM 1275; assay: Assimilation test by intestinal microorganism; format: cell-based; conditions: 0.5 w/v % saccharide in PYF broth, 37° C., 96 hours
[3] = tested on: Bifidobacterium breve JCM 1192; assay: Assimilation test by intestinal microorganism; format: cell-based; conditions: 0.5 w/v % saccharide in PYF broth, 37° C., 96 hours
[4] = tested on: Bifidobacterium bifidum JCM 1255; assay: Assimilation test by intestinal microorganism; format: cell-based; conditions: 0.5 w/v % saccharide in PYF broth, 37° C., 96 hours
[5] = tested on: Bifidobacterium animalis JCM 1190; assay: Assimilation test by intestinal microorganism; format: cell-based; conditions: 0.5 w/v % saccharide in PYF broth, 37° C., 96 hours
[6] = tested on: crude glucosyltransferase specimen derived from Streptococcus sobrinus strain (ATCC 27351); assay: Inhibition of insoluble glucan formation by glucosyltransferase from dental caries-inducing microorganism; format: biochemical; conditions: for Yield of non-adsorbed glucans / Yield of adsorbed glucans: sucrose plus test saccharide (one ml of one w/v % each), pH 6.8, 37° C., 16 hours; for Yield of non-adsorbed glucans: sucrose alone 923; for Yield of adsorbed glucans: sucrose alone 1,160
Description: To a mixture solution consisting of one ml of one w/v % sucrose solution, one ml of one w/v % of a test saccharide solution, and 1.5 ml of 0.1M phosphate buffer (pH 6.8) was added 0.5 ml solution containing a crude glucosyltransferase specimen in a total protein content of 10 mg, and the mixture solution was placed in a small test tube which was then fixed and slanted to give a grade 30 degrees and allowed to react at 37° C. for 16 hours. The reaction mixture was transferred gently to another test tube and mixed with a solution obtained by washing carefully with 4 ml water the remaining substances adhered to the inner walls of the small test tube, and the mixture solution was centrifuged to obtain a precipitate as a non-adsorbed glucan. The amounts of the adsorbed- and non-adsorbed glucans thus obtained were respectively quantified by the anthrone-sulfuric acid method, and the total amount of them was regarded as the amount of the formed insoluble glucans. As a control system, a reaction system using water in place of the test saccharide solution, i.e. a reaction system using sucrose as a saccharide, was provided.

[7] = tested on: Peptostreptococcus prevotii ATCC 9321; assay: Assimilation test by intestinal microorganism; format: cell-based; conditions: 0.5 w/v % saccharide in PYF broth, 37° C., 96 hours
[8] = tested on: Bifidobacterium infantis JCM 1222; assay: Assimilation test by intestinal microorganism; format: cell-based; conditions: 0.5 w/v % saccharide in PYF broth, 37° C., 96 hours
[9] = tested on: Streptococcus faecalis IAM 10065; assay: Assimilation test by intestinal microorganism; format: cell-based; conditions: 0.5 w/v % saccharide in PYF broth, 37° C., 96 hours
[10] = tested on: Bacteroides uniformis JCM 5828; assay: Assimilation test by intestinal microorganism; format: cell-based; conditions: 0.5 w/v % saccharide in PYF broth, 37° C., 96 hours
[11] = tested on: Lactobacillus fermentum IFO 3959; assay: Assimilation test by intestinal microorganism; format: cell-based; conditions: 0.5 w/v % saccharide in PYF broth, 37° C., 96 hours
[12] = tested on: Escherichia coli IFO 3301; assay: Assimilation test by intestinal microorganism; format: cell-based; conditions: 0.5 w/v % saccharide in PYF broth, 37° C., 96 hours
[13] = tested on: Lactobacillus plantarum IFO 3070; assay: Assimilation test by intestinal microorganism; format: cell-based; conditions: 0.5 w/v % saccharide in PYF broth, 37° C., 96 hours
[14] = tested on: Eubacterium aerofaciens ATCC 25986; assay: Assimilation test by intestinal microorganism; format: cell-based; conditions: 0.5 w/v % saccharide in PYF broth, 37° C., 96 hours
[15] = tested on: Bacteroides distasonis JCM 5825; assay: Assimilation test by intestinal microorganism; format: cell-based; conditions: 0.5 w/v % saccharide in PYF broth, 37° C., 96 hours
[16] = tested on: Bacteroides vulgatus JCM 5826; assay: Assimilation test by intestinal microorganism; format: cell-based; conditions: 0.5 w/v % saccharide in PYF broth, 37° C., 96 hours
[17] = tested on: bifid bacteria; assay: Assimilation test by intestinal microorganism, overall judgement; format: cell-based; conditions: results of Tables 4 and 5
Description: To evaluate the growth rate of and to judge the assimilability by the microorganisms, the resultant broth was diluted 5-fold, and the turbidity of the dilution was measured at a wavelength of 750 nm in a 1-cm light-path cell. […] The criteria were in Table 3, and the results were in Tables 4 and 5: […]

[18] = tested on: Bifidobacterium longum JCM 1217; assay: Assimilation test by intestinal microorganism; format: cell-based; conditions: 0.5 w/v % saccharide in PYF broth, 37° C., 96 hours
[19] = tested on: Enzyme from small intestinal mucus membrane; conditions: enzymes of small intestinal mucus membranes
[20] = Maillard reaction (coloration with glycine); format: physicochemical; conditions: 10 w/v % saccharide, one w/v % glycine, 50 mM phosphate buffer pH 7.0, 100° C., 90 min; 1-cm cell
[21] = tested on: Clostridium ramosum JCM 1298; assay: Assimilation test by intestinal microorganism; format: cell-based; conditions: 0.5 w/v % saccharide in PYF broth, 37° C., 96 hours
[22] = tested on: Clostridium butyricum JCM 1391; format: cell-based; conditions: 0.5 w/v % saccharide in PYF broth, 37° C., 96 hours
[23] = tested on: Clostridium perfringens JCM 3816; format: cell-based; conditions: 0.5 w/v % saccharide in PYF broth, 37° C., 96 hours

Structure (SMILES)	pH at each fermentation time (min): 0 [1]	pH at each fermentation time (min): 5 [1]	pH at each fermentation time (min): 15 [1]	pH at each fermentation time (min): 30 [1]	pH at each fermentation time (min): 60 [1]	pH at each fermentation time (min): 90 [1]	Judgement of assimilation (turbidity at a wavelength of 750 nm × 5) [2]	Judgement of assimilation (turbidity at a wavelength of 750 nm × 5) [3]	Judgement of assimilation (turbidity at a wavelength of 750 nm × 5) [4]	Judgement of assimilation (turbidity at a wavelength of 750 nm × 5) [5]	Yield of non-adsorbed glucans [6]	Yield of adsorbed glucans [6] [µg/mL]	Judgement of assimilation (turbidity at a wavelength of 750 nm × 5) [7]	Judgement of assimilation (turbidity at a wavelength of 750 nm × 5) [8]	Judgement of assimilation (turbidity at a wavelength of 750 nm × 5) [9]	Judgement of assimilation (turbidity at a wavelength of 750 nm × 5) [10]	Judgement of assimilation (turbidity at a wavelength of 750 nm × 5) [11]	Judgement of assimilation (turbidity at a wavelength of 750 nm × 5) [12]	Judgement of assimilation (turbidity at a wavelength of 750 nm × 5) [13]	Judgement of assimilation (turbidity at a wavelength of 750 nm × 5) [14]	other results
OC[C@H]1O[C@@](CO)(O[C@H]2O[C@H](CO)[C@@H](O)[C@H](O)[C@H]2O)[C@@H](O)[C@@H]1O [Sucrose, sucrose, reference compound]	7.0	4.3	4.1	4.0	4.0	4.0	–	–	–	–	–	–	–	–	–	–	–	–	–	–	–
OC[C@H]1O[C@H](OC[C@H]2O[C@H](OC[C@H]3O[C@H](O[C@H]4O[C@H](CO)[C@@H](O)[C@H](O)[C@H]4O)[C@H](O)[C@@H](O)[C@@H]3O)[C@H](O)[C@@H](O)[C@@H]2O)[C@H](O)[C@@H](O)[C@@H]1O [α-Isomaltotriosyl α-glucoside, O-α-D-glucopyranosyl-(1→6 )-O-α-D-glucopyranosyl-(1→6)-α-D-glucopyranosyl α-D-glucopyrandside]	7.0	7.0	6.9	6.9	6.9	6.9	+++ (0.3 or higher)	+++ (0.3 or higher)	++ (0.2 or higher but less than 0.3)	+++ (0.3 or higher)	269 µg/mL	66	± (0.1 or higher but less than 0.15)	++ (0.2 or higher but less than 0.3)	- (Less than 0.1)	- (Less than 0.1)	- (Less than 0.1)	- (Less than 0.1)	- (Less than 0.1)	- (Less than 0.1)	Judgement of assimilation (turbidity at a wavelength of 750 nm × 5) [15]: - (Less than 0.1); Judgement of assimilation (turbidity at a wavelength of 750 nm × 5) [16]: - (Less than 0.1); Selective assimilability by bifid bacteria, in words [17]: high in the selective assimilability by bifid bacteria; Judgement of assimilation (turbidity at a wavelength of 750 nm × 5) [18]: +++ (0.3 or higher); Digestibility, judgement in words [19]: relatively-low in digestibility; Coloration degree (at a wavelength of 480 nm) [20]: 0.019; Judgement of assimilation (turbidity at a wavelength of 750 nm × 5) [21]: - (Less than 0.1); Judgement of assimilation (turbidity at a wavelength of 750 nm × 5) [22]: +++ (0.3 or higher)
OC[C@H]1O[C@H](O[C@H]2O[C@H](CO)[C@@H](O)[C@H](O)[C@H]2O)[C@H](O)[C@@H](O)[C@@H]1O [Trehalose, trehalose, reference compound]	7.0	6.7	5.3	4.7	4.3	4.2	+ (0.15 or higher but less than 0.2)	- (Less than 0.1)	+ (0.15 or higher but less than 0.2)	+ (0.15 or higher but less than 0.2)	1,130 μg/ml	772	+ (0.15 or higher but less than 0.2)	- (Less than 0.1)	+ (0.15 or higher but less than 0.2)	++ (0.2 or higher but less than 0.3)	+ (0.15 or higher but less than 0.2)	- (Less than 0.1)	++ (0.2 or higher but less than 0.3)	- (Less than 0.1)	Inhibitory percentage (%) on insoluble glucans' formation ([6]; sucrose plus test saccharide, versus sucrose alone): 8.7%; Judgement of assimilation (turbidity at a wavelength of 750 nm × 5) [15]: ++ (0.2 or higher but less than 0.3); Judgement of assimilation (turbidity at a wavelength of 750 nm × 5) [16]: + (0.15 or higher but less than 0.2); Judgement of assimilation (turbidity at a wavelength of 750 nm × 5) [18]: ++ (0.2 or higher but less than 0.3); Coloration degree (at a wavelength of 480 nm) [20]: 0.007; Judgement of assimilation (turbidity at a wavelength of 750 nm × 5) [21]: + (0.15 or higher but less than 0.2); Judgement of assimilation (turbidity at a wavelength of 750 nm × 5) [22]: +++ (0.3 or higher); Judgement of assimilation (turbidity at a wavelength of 750 nm × 5) [23]: +++ (0.3 or higher)
